According to ChEMBL document CHEMBL1151009, “Synthesis and pharmacological evaluation of combined Thromboxane receptor antagonists/thromboxane synthase inhibitors: Pyridine-containing amino-prostanoids” (Bioorg Med Chem Lett, 1991):

Columns and labels:
Thromboxane A2 receptor [1] = molecular target: T1, Thromboxane A2 receptor (Rattus norvegicus, UniProt P34978); assay: In vitro thromboxane A2 receptor antagonism through inhibition of U-46619-induced contraction of rat isolated thoracic aortic strip; assay type: functional; conditions: read-out: pA2 (converted)
T1 sequence (P34978 whole entry): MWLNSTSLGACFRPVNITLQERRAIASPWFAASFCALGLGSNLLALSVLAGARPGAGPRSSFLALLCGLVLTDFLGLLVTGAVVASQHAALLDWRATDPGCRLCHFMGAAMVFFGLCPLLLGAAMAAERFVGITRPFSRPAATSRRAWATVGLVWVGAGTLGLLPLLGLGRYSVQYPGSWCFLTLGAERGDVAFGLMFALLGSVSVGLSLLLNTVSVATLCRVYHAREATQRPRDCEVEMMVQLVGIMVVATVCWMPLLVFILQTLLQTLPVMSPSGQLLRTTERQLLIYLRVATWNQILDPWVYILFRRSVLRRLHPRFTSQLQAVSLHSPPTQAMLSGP

Thromboxane A2 receptor [2] = molecular target: T2, Thromboxane A2 receptor (Homo sapiens, UniProt P21731); assay: In vitro thromboxane A2 receptor antagonism through inhibition of U-46619-induced platelet aggregation in human whole blood.; assay type: functional, tissue-based; conditions: read-out: pA2 (converted)
T2 sequence (P21731 whole entry): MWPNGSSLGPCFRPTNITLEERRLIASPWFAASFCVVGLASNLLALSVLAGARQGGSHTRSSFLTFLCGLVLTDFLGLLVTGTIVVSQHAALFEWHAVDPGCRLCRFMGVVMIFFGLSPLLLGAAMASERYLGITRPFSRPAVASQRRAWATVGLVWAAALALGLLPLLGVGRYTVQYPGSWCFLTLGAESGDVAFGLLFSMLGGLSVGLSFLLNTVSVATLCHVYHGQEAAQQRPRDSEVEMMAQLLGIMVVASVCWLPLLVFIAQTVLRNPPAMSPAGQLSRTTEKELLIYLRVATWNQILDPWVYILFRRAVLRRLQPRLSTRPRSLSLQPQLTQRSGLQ

Thromboxane-A synthase = molecular target: T3, Thromboxane-A synthase (Homo sapiens, UniProt P24557); assay: In vitro TXA2 synthase antagonism through inhibition of collagen induced thromboxane-A2 production in human citreated whole blood; assay type: functional, tissue-based
T3 sequence (P24557 whole entry): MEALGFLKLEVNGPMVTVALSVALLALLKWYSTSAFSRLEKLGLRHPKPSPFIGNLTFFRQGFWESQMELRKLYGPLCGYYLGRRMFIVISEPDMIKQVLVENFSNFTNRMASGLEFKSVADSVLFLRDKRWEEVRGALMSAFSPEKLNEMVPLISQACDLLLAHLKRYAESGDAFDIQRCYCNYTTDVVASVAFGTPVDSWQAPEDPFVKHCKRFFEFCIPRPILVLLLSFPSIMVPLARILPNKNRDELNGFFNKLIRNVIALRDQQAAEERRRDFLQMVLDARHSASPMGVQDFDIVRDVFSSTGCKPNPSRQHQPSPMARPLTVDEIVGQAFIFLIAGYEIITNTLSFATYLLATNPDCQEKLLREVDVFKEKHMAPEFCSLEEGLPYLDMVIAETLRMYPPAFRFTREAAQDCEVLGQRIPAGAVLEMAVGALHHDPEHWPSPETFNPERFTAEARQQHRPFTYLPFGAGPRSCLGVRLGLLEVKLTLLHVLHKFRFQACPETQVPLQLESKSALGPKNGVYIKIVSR

SMILES	Kb (Thromboxane A2 receptor [1]) [µM]	Kb (Thromboxane A2 receptor [2]) [µM]	IC50 (Thromboxane-A synthase) [µM]
Cc1cnccc1-c1ccc(CO[C@@H]2CC[C@H](N3CCCCCC3)[C@H]2OC/C=C\CCC(=O)O)cc1	0.02	0.00631	1.58
O=C(O)CC/C=C\CO[C@H]1[C@H](OCc2ccc(-c3ccncc3)cc2)CC[C@@H]1N1CCCCCC1	0.0794	0.01	0.631
O=C(O)CC/C=C\CO[C@H]1[C@H](OCc2ccc(-c3cccnc3CO)cc2)CC[C@@H]1N1CCCCCC1	0.00316	0.00316	> 10
O=C(O)CC/C=C\CO[C@H]1[C@H](OCc2ccc(-c3cccnc3)cc2)CC[C@@H]1N1CCCCCC1	0.0398	0.0126	0.631
O=C(O)CC/C=C\CO[C@H]1[C@H](OCc2ccc(-c3ccncc3CO)cc2)CC[C@@H]1N1CCCCCC1	0.0158	0.00316	
O=C(O)CC/C=C\CO[C@H]1[C@H](OCc2ccc(-c3cnccc3CCO)cc2)CC[C@@H]1N1CCCCCC1	0.00316	0.00316	> 10
Cc1ccncc1-c1ccc(CO[C@@H]2CC[C@H](N3CCCCCC3)[C@H]2OC/C=C\CCC(=O)O)cc1	0.0316	0.00251	0.1
CCc1ccncc1-c1ccc(CO[C@@H]2CC[C@H](N3CCCCCC3)[C@H]2OC/C=C\CCC(=O)O)cc1	0.01	0.001	2.51
CCCCc1ccncc1-c1ccc(CO[C@@H]2CC[C@H](N3CCCCCC3)[C@H]2OC/C=C\CCC(=O)O)cc1	0.01	0.00398	0.1
O=C(O)CC/C=C\CO[C@H]1[C@H](OCc2ccc(-c3cncc(CO)c3)cc2)CC[C@@H]1N1CCCCCC1	0.0251	0.00631	> 10
CC(C)(C)c1ccncc1-c1ccc(CO[C@@H]2CC[C@H](N3CCCCCC3)[C@H]2OC/C=C\CCC(=O)O)cc1	0.00316	0.00316	> 10
CCCc1ccncc1-c1ccc(CO[C@@H]2CC[C@H](N3CCCCCC3)[C@H]2OC/C=C\CCC(=O)O)cc1	0.0316	0.00251	0.1
O=C(O)CCCCO/N=C(/c1cccnc1)c1cccc(C(F)(F)F)c1 [RIDOGREL]	1.26	3.98	0.0316
O=C(O)CC/C=C\CO[C@H]1[C@H](OCc2ccc(-c3cnccc3CO)cc2)CC[C@@H]1N1CCCCCC1	0.0126	0.00316	1.58
O=C(O)CCCC/C=C(\c1ccccc1)c1cccnc1 [(E)-ISBOGREL]	6.31	15.8	
CCc1cnccc1-c1ccc(CO[C@@H]2CC[C@H](N3CCCCCC3)[C@H]2OC/C=C\CCC(=O)O)cc1	0.0158	0.00631	0.398
